From PubChem BioAssay (NCI)
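GI50 is the concentration that inhibits growth by half. TGI: concentration producing complete growth inhibition.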

Key:
Experiment in all cases: NCI tumour cell line growth inhibition, 384-well format; in the data active = GI50 below about 0.43 µM; inactive = the rest
COLO 205 colon = system: COLO 205 colon
HCT-116 colon = system: HCT-116 colon
IGROV1 ovarian = system: IGROV1 ovarian
T-47D breast = system: T-47D breast
OVCAR-4 ovarian = system: OVCAR-4 ovarian
SN12C renal = system: SN12C renal
K-562 leukemia = system: K-562 leukemia
HL-60(TB) leukemia = system: HL-60(TB) leukemia
HOP-62 NSCLC = system: HOP-62 NSCLC
DU-145 prostate = system: DU-145 prostate
NCI-H522 lung = system: NCI-H522 lung
NCI-H23 lung = system: NCI-H23 lung
786-0 renal = system: 786-0 renal
A549 NSCLC = system: A549 NSCLC
SK-MEL-5 melanoma = system: SK-MEL-5 melanoma
HOP-92 NSCLC = system: HOP-92 NSCLC
M14 melanoma = system: M14 melanoma
NCI/ADR-RES ovarian = system: NCI/ADR-RES ovarian
HCT-15 colon = system: HCT-15 colon
HT29 colon = system: HT29 colon
UO-31 renal = system: UO-31 renal
ACHN renal = system: ACHN renal
CAKI-1 renal = system: CAKI-1 renal
NCI-H322M lung = system: NCI-H322M lung
OVCAR-5 ovarian = system: OVCAR-5 ovarian
SK-MEL-28 melanoma = system: SK-MEL-28 melanoma
SNB-19 CNS = system: SNB-19 CNS
MDA-MB-435 melanoma = system: MDA-MB-435 melanoma
SF-295 CNS = system: SF-295 CNS
MDA-MB-468 breast = system: MDA-MB-468 breast
SK-MEL-2 melanoma = system: SK-MEL-2 melanoma
PC-3 prostate = system: PC-3 prostate
MDA-MB-231 breast = system: MDA-MB-231 breast
SK-OV-3 ovarian = system: SK-OV-3 ovarian
KM12 colon = system: KM12 colon
UACC-62 melanoma = system: UACC-62 melanoma
NCI-H460 NSCLC = system: NCI-H460 NSCLC
A498 renal = system: A498 renal
SF-539 CNS = system: SF-539 CNS
SF-268 CNS = system: SF-268 CNS
MOLT-4 leukemia = system: MOLT-4 leukemia
U251 glioblastoma = system: U251 glioblastoma
RXF 393 renal = system: RXF 393 renal
MALME-3M melanoma = system: MALME-3M melanoma
BT-549 breast = system: BT-549 breast
SW-620 colon = system: SW-620 colon
LOX IMVI melanoma = system: LOX IMVI melanoma
OVCAR-3 ovarian = system: OVCAR-3 ovarian
TK-10 renal = system: TK-10 renal
UACC-257 melanoma = system: UACC-257 melanoma
OVCAR-8 ovarian = system: OVCAR-8 ovarian
RPMI-8226 leukemia = system: RPMI-8226 leukemia
NCI-H226 lung = system: NCI-H226 lung
MCF7 breast = system: MCF7 breast
SR leukemia = system: SR leukemia
HCC-2998 colon = system: HCC-2998 colon
CCRF-CEM leukemia = system: CCRF-CEM leukemia

COCCOCCOCCOCCOC(=O)OC[n+]1ccc(NC(=NCCCCCCOc2ccc(Cl)cc2)NC#N)cc1
30.1 nM: TGI (MDA-MB-231 breast)
33.3 nM: TGI (SR leukemia)
< 10 nM: TGI (COLO 205 colon) | TGI (HCT-116 colon) | TGI (IGROV1 ovarian) | TGI (T-47D breast) | TGI (OVCAR-4 ovarian) | TGI (SN12C renal) | TGI (K-562 leukemia) | TGI (HL-60(TB) leukemia) | TGI (HOP-62 NSCLC) | TGI (NCI-H522 lung) | TGI (NCI-H23 lung) | TGI (786-0 renal) | TGI (SK-MEL-5 melanoma) | TGI (NCI/ADR-RES ovarian) | TGI (HCT-15 colon) | TGI (HT29 colon) | TGI (UO-31 renal) | TGI (ACHN renal) | TGI (CAKI-1 renal) | TGI (NCI-H322M lung) | TGI (OVCAR-5 ovarian) | TGI (SK-MEL-28 melanoma) | TGI (SNB-19 CNS) | TGI (MDA-MB-435 melanoma) | TGI (SF-295 CNS) | TGI (MDA-MB-468 breast) | TGI (SK-MEL-2 melanoma) | TGI (PC-3 prostate) | TGI (SK-OV-3 ovarian) | TGI (KM12 colon) | TGI (UACC-62 melanoma) | TGI (NCI-H460 NSCLC) | TGI (SF-539 CNS) | TGI (SF-268 CNS) | TGI (MOLT-4 leukemia) | TGI (U251 glioblastoma) | TGI (RXF 393 renal) | TGI (BT-549 breast) | TGI (SW-620 colon) | TGI (LOX IMVI melanoma) | TGI (OVCAR-3 ovarian) | TGI (TK-10 renal) | TGI (OVCAR-8 ovarian) | TGI (RPMI-8226 leukemia) | TGI (MCF7 breast) | TGI (HCC-2998 colon) | TGI (CCRF-CEM leukemia)
18.8 nM: TGI (DU-145 prostate)
18.9 nM: TGI (M14 melanoma)
41.5 nM: TGI (HOP-92 NSCLC)
15.8 nM: TGI (UACC-257 melanoma)
46.4 nM: TGI (MALME-3M melanoma)
active: GI50 (COLO 205 colon) < 10 nM | GI50 (HCT-116 colon) < 10 nM | GI50 (IGROV1 ovarian) < 10 nM | GI50 (T-47D breast) < 10 nM | GI50 (OVCAR-4 ovarian) < 10 nM | GI50 (SN12C renal) < 10 nM | GI50 (K-562 leukemia) < 10 nM | GI50 (HL-60(TB) leukemia) < 10 nM | GI50 (HOP-62 NSCLC) < 10 nM | GI50 (DU-145 prostate) < 10 nM | GI50 (NCI-H522 lung) < 10 nM | GI50 (NCI-H23 lung) < 10 nM | GI50 ([…]-0 renal) < 10 nM | GI50 (A549 NSCLC) < 10 nM | GI50 (SK-MEL-5 melanoma) < 10 nM | GI50 (HOP-92 NSCLC) 21.6 nM | GI50 (M14 melanoma) < 10 nM | GI50 (NCI/ADR-RES ovarian) < 10 nM | GI50 (HCT-15 colon) < 10 nM | GI50 (HT29 colon) < 10 nM | GI50 (UO-31 renal) < 10 nM | GI50 (ACHN renal) < 10 nM | GI50 (CAKI-1 renal) < 10 nM | GI50 (NCI-H322M lung) < 10 nM | GI50 (OVCAR-5 ovarian) < 10 nM | GI50 (SK-MEL-28 melanoma) < 10 nM | GI50 (SNB-19 CNS) < 10 nM | GI50 (MDA-MB-435 melanoma) < 10 nM | GI50 (SF-295 CNS) < 10 nM | GI50 (MDA-MB-468 breast) < 10 nM | GI50 (SK-MEL-2 melanoma) < 10 nM | GI50 (PC-3 prostate) < 10 nM | GI50 (MDA-MB-231 breast) 15.2 nM | GI50 (SK-OV-3 ovarian) < 10 nM | GI50 (KM12 colon) < 10 nM | GI50 (UACC-62 melanoma) < 10 nM | GI50 (NCI-H460 NSCLC) < 10 nM | GI50 (A498 renal) 25.3 nM | GI50 (SF-539 CNS) < 10 nM | GI50 (SF-268 CNS) < 10 nM | GI50 (MOLT-4 leukemia) < 10 nM | GI50 (U251 glioblastoma) < 10 nM | GI50 (RXF 393 renal) < 10 nM | GI50 (MALME-3M melanoma) 25.3 nM | GI50 (BT-549 breast) < 10 nM | GI50 (SW-620 colon) < 10 nM | GI50 (LOX IMVI melanoma) < 10 nM | GI50 (OVCAR-3 ovarian) < 10 nM | GI50 (TK-10 renal) < 10 nM | GI50 (UACC-257 melanoma) < 10 nM | GI50 (OVCAR-8 ovarian) < 10 nM | GI50 (RPMI-8226 leukemia) < 10 nM | GI50 (NCI-H226 lung) 77.9 nM | GI50 (MCF7 breast) < 10 nM | GI50 (SR leukemia) 18.8 nM | GI50 (HCC-2998 colon) < 10 nM | GI50 (CCRF-CEM leukemia) < 10 nM
58.6 nM: TGI (A498 renal)
19.4 nM: TGI (A549 NSCLC)
2960 nM: TGI (NCI-H226 lung)
